Test results reported in patent publication US20250333406A1, “SULFONYL CYCLIC DERIVATIVES, AND COMPOSITIONS AND METHODS THEREOF” (Lysoway Therapeutics, Inc., priority 2023, published 2025).

test system: TFEB; experiment: TFEB Nuclear Translocation Assay; assay type: cell-based; conditions: read-out: EC50 of TFEB activation

Compound	EC50
CC(C)S(=O)(=O)n1ccc(S(=O)(=O)n2nc(N3CCN(c4ncc(Cl)cc4F)CC34CC4)c3c(Cl)ccnc32)c1 [Compound 152, 4-chloro-3-[7-(5-chloro-3-fluoro-2-pyridyl)-4,7-diazaspiro [2.5]octan-4-yl]-1-(1-isopropylsulfonylpyrrol-3-yl) sulfonyl-pyrazolo [3,4-b]pyridine]	≤ 1000 nM
CC(C)S(=O)(=O)c1ccc(S(=O)(=O)n2nc(N3CCN(c4ncc(F)cc4F)CC34CC4)c3c(F)ccc(F)c32)s1 [Compound 32, 3-[7-(3,5-difluoro-2-pyridyl)-4,7-diazaspiro [2.5]octan-4-yl]-4,7-difluoro-1-[(5-isopropylsulfonyl-2-thienyl)sulfonyl]indazole]	≤ 1000 nM
CC(C)(CF)c1ccc(S(=O)(=O)n2nc(N3CCN(c4ncc(F)cn4)CC34CC4)c3c(Cl)cccc32)cc1 [Compound 96, 4-chloro-1-[4-(2-fluoro-1,1-dimethyl-ethyl)phenyl]sulfonyl-3-[7-(5-fluoropyrimidin-2-yl)-4,7-diazaspiro [2.5]octan-4-yl]indazole]	≤ 1000 nM
CC(F)(F)c1ncc(S(=O)(=O)n2nc(N3CCN(c4ncc(F)cn4)CC34CC4)c3c(Cl)cccc32)cn1 [Compound 137, 4-chloro-1-[2-(1,1-difluoroethyl)pyrimidin-5-yl]sulfonyl-3-[7-(5-fluoropyrimidin-2-yl)-4,7-diazaspiro [2.5]octan-4-yl]indazole]	≤ 1000 nM
CC(C)S(=O)(=O)c1ccc(S(=O)(=O)n2nc(N3CC=C(Cl)C[C@@H]3C(F)(F)F)c3c(Cl)cccc32)cc1 [Compound 82, 4-chloro-3-[(2R)-4-chloro-2-(trifluoromethyl)-3,6-dihydro-2H-pyridin-1-yl]-1-(4-isopropylsulfonylphenyl)sulfonyl-indazole]	≤ 1000 nM
CC(C)S(=O)(=O)n1ccc(S(=O)(=O)n2nc(N3CCN(c4ncc(F)cc4F)CC34CC4)c3c(Cl)cc(F)cc32)n1 [Compound 199, 4-chloro-3-[7-(3,5-difluoro-2-pyridyl)-4,7-diazaspiro [2.5]octan-4-yl]-6-fluoro-1-(1-isopropylsulfonylpyrazol-3-yl) sulfonyl-indazole]	≤ 1000 nM
CC(C)S(=O)(=O)n1ccc(S(=O)(=O)n2nc(N3CCN(c4ncc(F)cc4F)CC34CC4)c3c(F)cc(Cl)cc32)c1 [Compound 168, 6-chloro-3-[7-(3,5-difluoro-2-pyridyl)-4,7-diazaspiro [2.5]octan-4-yl]-4-fluoro-1-(1-isopropylsulfonylpyrrol-3-yl) sulfonyl-indazole]	≤ 1000 nM
CC(C)S(=O)(=O)c1ccc(S(=O)(=O)n2nc(N3CCN(c4ncc(F)cn4)CC34CC4)c3c(Cl)cccc32)cc1 [Compound 10, 4-chloro-3-[7-(5-fluoropyrimidin-2-yl)-4,7-diazaspiro [2.5]octan-4-yl]-1-(4-isopropylsulfonylphenyl) sulfonyl-indazole]	≤ 1000 nM
CC(C)S(=O)(=O)n1ccc(S(=O)(=O)n2nc(N3CCN(c4ccc(F)cn4)CC34CC4)c3c(F)cc(F)cc32)c1 [Compound 165, 4,6-difluoro-3-(7-(5-fluoropyridin-2-yl)-4,7-diazaspiro [2.5]octan-4-yl)-1-((1-(isopropylsulfonyl)-1H-pyrrol-3-yl)sulfonyl)-1H-indazole]	≤ 1000 nM
CCC(F)(F)c1ccc(S(=O)(=O)n2nc(N3CCN(c4ncc(F)cn4)CC34CC4)c3c(Cl)cccc32)cc1 [Compound 102, 4-chloro-1-[4-(1,1-difluoropropyl)phenyl]sulfonyl-3-[7-(5-fluoropyrimidin-2-yl)-4,7-diazaspiro [2.5]octan-4-yl]indazole]	≤ 1000 nM
CC(C)S(=O)(=O)c1ccc(S(=O)(=O)n2nc(N3CCN(C(=O)C(F)(F)F)C[C@@H]3C(F)(F)F)c3c(Cl)cccc32)cc1 [Compound 70, 1-[(3R)-4-[4-chloro-1-(4-isopropylsulfonylphenyl)sulfonyl-indazol-3-yl]-3-(trifluoromethyl)piperazin-1-yl]-2,2,2-trifluoro-ethanone]	≤ 1000 nM
CC(C)S(=O)(=O)n1ccc(S(=O)(=O)n2nc(N3CCN(c4c(F)cccc4F)CC34CC4)c3c(Cl)cc(F)cc32)c1 [Compound 182, 4-chloro-3-(7-(2,6-difluorophenyl)-4,7-diazaspiro [2.5]octan-4-yl)-6-fluoro-1-((1-(isopropylsulfonyl)-1H-pyrrol-3-yl)sulfonyl)-1H-indazole]	≤ 1000 nM
O=S(=O)(c1ccn(S(=O)(=O)C2CC2)c1)n1nc(N2CCN(c3ncc(F)cc3F)CC23CC3)c2c(F)ccc(F)c21 [Compound 145, 1-(1-cyclopropylsulfonylpyrrol-3-yl) sulfonyl-3-[7-(3,5-difluoro-2-pyridyl)-4,7-diazaspiro [2.5]octan-4-yl]-4,7-difluoro-indazole]	≤ 1000 nM
CC(C)(F)c1ccc(S(=O)(=O)n2nc(N3CCN(c4ncc(F)cn4)CC34CC4)c3c(Cl)cccc32)cc1 [Compound 97, 4-chloro-1-((4-(2-fluoropropan-2-yl)phenyl)sulfonyl)-3-(7-(5-fluoropyrimidin-2-yl)-4,7-diazaspiro [2.5]octan-4-yl)-1H-indazole]	≤ 1000 nM
CC(C)(C)S(=O)(=O)c1ccc(S(=O)(=O)n2nc(N3CCN(c4ncc(F)cn4)CC34CC4)c3c(Cl)cccc32)s1 [Compound 49, 1-((5-(tert-butylsulfonyl)thiophen-2-yl)sulfonyl)-4-chloro-3-(7-(5-fluoropyrimidin-2-yl)-4,7-diazaspiro [2.5]octan-4-yl)-1H-indazole]	≤ 1000 nM
CC(C)S(=O)(=O)n1ccc(S(=O)(=O)n2nc(N3CCCC4(CC4)C3)c3c(Cl)cccc32)c1 [Compound 139, 3-(5-azaspiro [2.5]octan-5-yl)-4-chloro-1-(1-isopropylsulfonylpyrrol-3-yl) sulfonyl-indazole]	≤ 1000 nM
CC(C)S(=O)(=O)c1ccc(S(=O)(=O)n2nc(N3CCC(=O)CC34CC4)c3c(Cl)cccc32)s1 [Compound 8, 4-[4-chloro-1-[(5-isopropylsulfonyl-2-thienyl)sulfonyl]indazol-3-yl]-4-azaspiro [2.5]octan-7-one]	≤ 1000 nM
CC(C)S(=O)(=O)c1ccc(S(=O)(=O)n2nc(N3CCN(C(=O)C(F)(F)F)CC34CC4)c3c(Cl)cccc32)s1 [Compound 9, 1-[4-[4-chloro-1-[(5-isopropylsulfonyl-2-thienyl)sulfonyl]indazol-3-yl]-4,7-diazaspiro [2.5]octan-7-yl]-2,2,2-trifluoro-ethanone]	≤ 1000 nM
CC(C)(C)S(=O)(=O)n1ccc(S(=O)(=O)n2nc(N3CCN(c4ncc(F)cn4)CC34CC4)c3c(F)cc(F)cc32)c1 [Compound 172, 1-((1-(tert-butylsulfonyl)-1H-pyrrol-3-yl)sulfonyl)-4,6-difluoro-3-(7-(5-fluoropyrimidin-2-yl)-4,7-diazaspiro [2.5]octan-4-yl)-1H-indazole]	≤ 1000 nM
CC(C)S(=O)(=O)n1ccc(S(=O)(=O)n2nc(N3CCN(c4ncc(Cl)cn4)CC34CC4)c3c(Cl)cc(F)cc32)c1 [Compound 154, 4-chloro-3-(7-(5-chloropyrimidin-2-yl)-4,7-diazaspiro [2.5]octan-4-yl)-6-fluoro-1-((1-(isopropylsulfonyl)-1H-pyrrol-3-yl)sulfonyl)-1H-indazole]	≤ 1000 nM
CC(C)S(=O)(=O)c1ccc(S(=O)(=O)n2nc(N3CCN(c4ncc(Cl)cc4F)CC34CC4)c3c(Cl)cc(F)cc32)s1 [Compound 35, 4-chloro-3-(7-(5-chloro-3-fluoropyridin-2-yl)-4,7-diazaspiro[2.5]octan-4-yl)-6-fluoro-1-((5-(isopropylsulfonyl)thiophen-2-yl)sulfonyl)-1H-indazole]	≤ 1000 nM
CC(C)S(=O)(=O)c1ccc(S(=O)(=O)n2nc(N3CCN(c4ncc(Cl)cc4F)CC34CC4)c3c(Cl)cccc32)s1 [Compound 30, 4-chloro-3-[7-(5-chloro-3-fluoro-2-pyridyl)-4,7-diazaspiro [2.5]octan-4-yl]-1-[(5-isopropylsulfonyl-2-thienyl)sulfonyl]indazole]	≤ 1000 nM
CC(C)S(=O)(=O)n1ccc(S(=O)(=O)n2nc(N3CCN(c4ncc(F)cc4F)CC34CC4)c3c(F)cc(F)cc32)c1 [Compound 159, 3-(7-(3,5-difluoropyridin-2-yl)-4,7-diazaspiro [2.5]octan-4-yl)-4,6-difluoro-1-((1-(isopropylsulfonyl)-1H-pyrrol-3-yl)sulfonyl)-1H-indazole]	≤ 1000 nM
CC(C)S(=O)(=O)c1ccc(S(=O)(=O)n2nc(N3CCC(Cl)=C[C@@H]3C(F)(F)F)c3c(Cl)cccc32)cc1 [Compound 80, 4-chloro-3-[(6R)-4-chloro-6-(trifluoromethyl)-3,6-dihydro-2H-pyridin-1-yl]-1-(4-isopropylsulfonylphenyl)sulfonyl-indazole]	≤ 1000 nM
CC(C)S(=O)(=O)c1nc(S(=O)(=O)n2nc(N3CCN(c4ncc(Cl)cc4F)CC34CC4)c3c(Cl)cccc32)cs1 [Compound 196, 4-((4-chloro-3-(7-(5-chloro-3-fluoropyridin-2-yl)-4,7-diazaspiro [2.5]octan-4-yl)-1H-indazol-1-yl)sulfonyl)-2-(isopropylsulfonyl) thiazole]	≤ 1000 nM
CC(C)S(=O)(=O)c1ccc(S(=O)(=O)n2nc(N3CCC(F)(F)CC34CC4)c3c(Cl)cccc32)s1 [Compound 12, 4-chloro-3-(7,7-difluoro-4-azaspiro [2.5]octan-4-yl)-1-[(5-isopropylsulfonyl-2-thienyl)sulfonyl]indazole]	≤ 1000 nM
CC(C)S(=O)(=O)c1ccc(S(=O)(=O)n2nc(N3CCN(C(=O)C(F)(F)F)CC34CC4)c3c(Cl)cccc32)cc1 [Compound 55, 1-[4-[4-chloro-1-(4-isopropylsulfonylphenyl)sulfonyl-indazol-3-yl]-4,7-diazaspiro [2.5]octan-7-yl]-2,2,2-trifluoro-ethanone]	≤ 1000 nM
CC(F)(F)c1ccc(S(=O)(=O)n2nc(N3CCN(c4ncc(F)cn4)CC3C(C)(C)C)c3c(Cl)cccc32)cc1 (centres unmarked) [Compound 108, 3-[2-tert-butyl-4-(5-fluoropyrimidin-2-yl)piperazin-1-yl]-4-chloro-1-[4-(1,1-difluoroethyl)phenyl]sulfonyl-indazole]	≤ 1000 nM
CC(C)S(=O)(=O)c1ccc(S(=O)(=O)n2nc(N3CC=C(Cl)C[C@H]3C(F)(F)F)c3c(Cl)cccc32)cc1 (single isomer, unassigned) [Compound 83]	≤ 1000 nM
